Measured values as given in the NIST ThermoML archive (doi:10.1016/j.jct.2019.03.023).
“And” between values parts separate entries of the source, which are not always exact repeats. Equal values may be shown once.

Test: molar heat capacity at constant volume
Details: Fluid (supercritical or subcritical phases), Vacuum adiabatic calorimetry

CC(C)O [propan-2-ol]
Details | molar heat capacity at constant volume
452.05 K, Mass density=581.06 kg/m3 | 180.71 J/K/mol
452.1 K, Mass density=581.06 kg/m3 | 178.12 J/K/mol
452.15 K, Mass density=581.06 kg/m3 | 174.34 J/K/mol
452.2 K, Mass density=581.06 kg/m3 | 178.36 J/K/mol
452.25 K, Mass density=581.06 kg/m3 | 175.9 J/K/mol
463.48 K, Mass density=329.2 kg/m3 | 270.31 J/K/mol
463.58 K, Mass density=329.2 kg/m3 | 271.63 J/K/mol
463.68 K, Mass density=329.2 kg/m3 | 275.36 J/K/mol
463.78 K, Mass density=329.2 kg/m3 | 270.31 J/K/mol
463.83 K, Mass density=329.2 kg/m3 | 274.63 J/K/mol
463.97 K, Mass density=329.2 kg/m3 | 279.44 J/K/mol
464.18 K, Mass density=329.2 kg/m3 | 278.72 J/K/mol and 277.04 J/K/mol
464.27 K, Mass density=329.2 kg/m3 | 280.16 J/K/mol
464.42 K, Mass density=329.2 kg/m3 | 278.24 J/K/mol
464.47 K, Mass density=329.2 kg/m3 | 275.54 J/K/mol
464.97 K, Mass density=329.2 kg/m3 | 277.34 J/K/mol
465.27 K, Mass density=329.2 kg/m3 | 272.77 J/K/mol
465.34 K, Mass density=329.2 kg/m3 | 278.54 J/K/mol
482.51 K, Mass density=329.2 kg/m3 | 288.1 J/K/mol
482.6 K, Mass density=329.2 kg/m3 | 289.9 J/K/mol
482.7 K, Mass density=329.2 kg/m3 | 288.46 J/K/mol
482.8 K, Mass density=329.2 kg/m3 | 287.73 J/K/mol
482.89 K, Mass density=329.2 kg/m3 | 288.34 J/K/mol
482.99 K, Mass density=329.2 kg/m3 | 292 J/K/mol
483.09 K, Mass density=329.2 kg/m3 | 287.19 J/K/mol
483.18 K, Mass density=329.2 kg/m3 | 291.64 J/K/mol
491.97 K, Mass density=274 kg/m3 | 317.84 J/K/mol
492.07 K, Mass density=274 kg/m3 | 313.28 J/K/mol
492.16 K, Mass density=274 kg/m3 | 317.9 J/K/mol
492.25 K, Mass density=274 kg/m3 | 317.9 J/K/mol
492.35 K, Mass density=274 kg/m3 | 322.53 J/K/mol
492.44 K, Mass density=274 kg/m3 | 322.53 J/K/mol
492.54 K, Mass density=274 kg/m3 | 322.59 J/K/mol
492.63 K, Mass density=274 kg/m3 | 322.59 J/K/mol
492.73 K, Mass density=274 kg/m3 | 318.08 J/K/mol
493.86 K, Mass density=255.8 kg/m3 | 333.29 J/K/mol
493.95 K, Mass density=255.8 kg/m3 | 333.29 J/K/mol
494.05 K, Mass density=255.8 kg/m3 | 323.49 J/K/mol
494.14 K, Mass density=255.8 kg/m3 | 338.27 J/K/mol
494.24 K, Mass density=255.8 kg/m3 | 333.41 J/K/mol
494.33 K, Mass density=255.8 kg/m3 | 323.61 J/K/mol
494.43 K, Mass density=255.8 kg/m3 | 333.47 J/K/mol
494.52 K, Mass density=255.8 kg/m3 | 328.54 J/K/mol
494.52 K, Mass density=324.5 kg/m3 | 307.87 J/K/mol
494.62 K, Mass density=324.5 kg/m3 | 303.36 J/K/mol
494.71 K, Mass density=324.5 kg/m3 | 303.18 J/K/mol
494.8 K, Mass density=324.5 kg/m3 | 309.79 J/K/mol
494.99 K, Mass density=324.5 kg/m3 | 306.6 J/K/mol
495.09 K, Mass density=324.5 kg/m3 | 314.12 J/K/mol
495.27 K, Mass density=324.5 kg/m3 | 308.05 J/K/mol
495.37 K, Mass density=324.5 kg/m3 | 311.05 J/K/mol
495.46 K, Mass density=324.5 kg/m3 | 303.36 J/K/mol
495.56 K, Mass density=324.5 kg/m3 | 314.96 J/K/mol
499.41 K, Mass density=274 kg/m3 | 329.44 J/K/mol
499.5 K, Mass density=274 kg/m3 | 338.64 J/K/mol
499.6 K, Mass density=274 kg/m3 | 334.07 J/K/mol
499.69 K, Mass density=274 kg/m3 | 338.7 J/K/mol
499.79 K, Mass density=274 kg/m3 | 334.13 J/K/mol
499.88 K, Mass density=274 kg/m3 | 338.76 J/K/mol
499.97 K, Mass density=274 kg/m3 | 338.82 J/K/mol
500.07 K, Mass density=274 kg/m3 | 338.82 J/K/mol
500.16 K, Mass density=274 kg/m3 | 334.25 J/K/mol
500.25 K, Mass density=255.8 kg/m3 | 348.07 J/K/mol
500.35 K, Mass density=255.8 kg/m3 | 343.74 J/K/mol
500.44 K, Mass density=255.8 kg/m3 | 348.67 J/K/mol
500.54 K, Mass density=255.8 kg/m3 | 348.73 J/K/mol
500.63 K, Mass density=255.8 kg/m3 | 345.79 J/K/mol
500.72 K, Mass density=255.8 kg/m3 | 348.79 J/K/mol
500.82 K, Mass density=255.8 kg/m3 | 338.94 J/K/mol
500.85 K, Mass density=329.2 kg/m3 | 318.14 J/K/mol
500.91 K, Mass density=255.8 kg/m3 | 346.15 J/K/mol
500.95 K, Mass density=329.2 kg/m3 | 311.35 J/K/mol
501 K, Mass density=281.9 kg/m3 | 333.77 J/K/mol
501.04 K, Mass density=329.2 kg/m3 | 310.87 J/K/mol
501.09 K, Mass density=281.9 kg/m3 | 334.85 J/K/mol
501.1 K, Mass density=281.9 kg/m3 | 338.09 J/K/mol
501.14 K, Mass density=329.2 kg/m3 | 313.94 J/K/mol
501.23 K, Mass density=329.2 kg/m3 | 314.06 J/K/mol
501.29 K, Mass density=281.9 kg/m3 | 337.01 J/K/mol
501.33 K, Mass density=329.2 kg/m3 | 310.75 J/K/mol
501.38 K, Mass density=281.9 kg/m3 | 335.39 J/K/mol
501.42 K, Mass density=329.2 kg/m3 | 316.76 J/K/mol
501.47 K, Mass density=281.9 kg/m3 | 337.49 J/K/mol
501.53 K, Mass density=329.2 kg/m3 | 318.08 J/K/mol
501.57 K, Mass density=281.9 kg/m3 | 336.95 J/K/mol
501.62 K, Mass density=329.2 kg/m3 | 320.49 J/K/mol
501.66 K, Mass density=281.9 kg/m3 | 338.58 J/K/mol
501.75 K, Mass density=281.9 kg/m3 | 331 J/K/mol
501.81 K, Mass density=329.2 kg/m3 | 316.64 J/K/mol
501.85 K, Mass density=343.1 kg/m3 | 312.61 J/K/mol
501.9 K, Mass density=329.2 kg/m3 | 317.06 J/K/mol
501.94 K, Mass density=266.3 kg/m3 | 345.85 J/K/mol
